Reference: US20180116993A1, “MODULATORS OF FARNESOID X RECEPTOR AND METHODS FOR THE USE THEREOF” (XIAMEN UNIVERSITY, priority 2015, published 2018)
Like-named read-outs stand apart in the source and are kept apart here. Marks after values point to notes of the source that are not given here.

How the values were obtained:
[1] = tested on: human colorectal adenocarcinoma HCT15 cells; test: MTT cell viability assay, HCT15; type: cell-based; settings: 48 h, read-out: Cell viability as a percentage of the cells treated with DMSO, HCT15; for viability at 20 µM: HCT-15, 20 uM; for viability at 40 µM: HCT-15, 40 uM
Method in brief: (§1)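 Cells cultured in DMEM with 10% FBS were treated with compounds at 20 uM or 40 uM. Viability was read by MTT and expressed as a percentage of DMSO-treated cells.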

[2] = tested on: human cervical carcinoma Hela cells; test: MTT cell viability assay, Hela; type: cell-based; settings: 48 h, read-out: Cell viability as a percentage of the cells treated with DMSO, Hela
Method in brief: as §1

[3] = tested on: db/db mice; test: Hepatic triglyceride, liver histology, serum ALT and ALP in high-fat diet fed db/db mice; type: in vivo, mouse; settings: for Hepatic triglyceride (mM/g): vehicle 148 ± 14; for Serum ALP (U/L): vehicle 129 ± 15
Method in brief: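 High-fat diet fed db/db mice aged 8-10 weeks dosed 10 mg/kg compound once daily for 10 days. Liver sections stained with H&E and 0.3% oil red O; hepatic triglyceride measured by tissue assay kit; serum ALP and ALT activities measured by kit.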

[4] = tested on: human hepatoma HepG2 cells; test: MTT cell viability assay, HepG2; type: cell-based; settings: 48 h, read-out: Cell viability as a percentage of the cells treated with DMSO, HepG2
Method in brief: as §1

[5] = tested on: RA-resistant human colon cancer HCT116 cells; test: MTT cell viability assay, HCT116; type: cell-based; settings: 48 h, read-out: Cell viability as a percentage of the cells treated with DMSO, HCT116; for viability at 20 µM: HCT-116, 20 uM; for viability at 40 µM: HCT-116, 40 uM
Method in brief: as §1

[6] = tested on: human breast cancer MCF7 cells; test: MTT cell viability assay, MCF-7; type: cell-based; settings: 48 h, read-out: Cell viability as a percentage of the cells treated with DMSO, MCF-7
Method in brief: as §1

[7] = target: T1, FXR ligand binding domain (LBD) (Homo sapiens, UniProt Q96RI1); test: AlphaScreen assay: FXR LBD recruitment of coregulator peptide motifs (SRC2-3, SRC1-2); type: biochemical; settings: Table 2
T1 construct: made in house
T1 sequence (Q96RI1 262-486 limits assumed): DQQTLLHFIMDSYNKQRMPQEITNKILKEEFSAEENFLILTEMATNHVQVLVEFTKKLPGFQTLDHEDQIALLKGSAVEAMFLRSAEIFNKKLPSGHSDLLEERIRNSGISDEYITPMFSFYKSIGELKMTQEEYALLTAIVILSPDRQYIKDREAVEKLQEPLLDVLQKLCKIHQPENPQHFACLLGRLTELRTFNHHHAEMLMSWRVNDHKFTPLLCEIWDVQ

[8] = target: T2, full-length FXR (Homo sapiens, UniProt Q96RI1); test: Cell-based FXR transactivation, EcRE luciferase reporter in COS-7 cells; settings: Table 2; for Cell-based FXR transactivation Fold changes by 5 μM compound: positive: induction, minus: repression; for EC50: EcRE luciferase reporter
T2 construct: The cells were co-transfected with plasmids encoding full-length FXR and the cognate luciferase reporter EcRE-Luc; expressed in transfected cells; host or cells: COS-7
T2 sequence (Q96RI1 1-486): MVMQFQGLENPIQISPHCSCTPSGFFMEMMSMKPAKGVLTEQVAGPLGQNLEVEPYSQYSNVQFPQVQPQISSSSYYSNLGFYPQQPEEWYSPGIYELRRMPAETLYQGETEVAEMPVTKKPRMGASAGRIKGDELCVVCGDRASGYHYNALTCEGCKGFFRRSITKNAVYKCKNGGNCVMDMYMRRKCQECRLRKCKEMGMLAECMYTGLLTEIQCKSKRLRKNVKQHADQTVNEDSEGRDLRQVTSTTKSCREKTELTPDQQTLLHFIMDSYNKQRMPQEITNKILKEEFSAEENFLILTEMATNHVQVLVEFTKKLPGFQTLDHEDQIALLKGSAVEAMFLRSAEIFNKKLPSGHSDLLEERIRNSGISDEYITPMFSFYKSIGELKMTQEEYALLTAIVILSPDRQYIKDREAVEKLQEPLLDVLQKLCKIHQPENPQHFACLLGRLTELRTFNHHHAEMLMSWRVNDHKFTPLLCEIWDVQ
Method in brief: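 COS-7 cells were transiently cotransfected with full-length FXR, EcRE-Luc reporter and a renilla control. Ligands were added 5 h after transfection, and cells were harvested 24 h later. Firefly luciferase was normalized to renilla in a dual-luciferase read-out.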

[9] = 10 mg/kg for 10 days, vehicle 377 ± 48, Table 15
[10] = SRC1-2 peptide, read-out: EC50 (μM) of FXR binding by AlphaScreen assay recruit SRC1-2
[11] = SRC2-3 peptide, read-out: EC50 (μM) of FXR binding by AlphaScreen assay recruit SRC2-3
[12] = 10 mg/kg once daily for 10 days
[13] = 10 mg/kg once daily for 10 days, vehicle 377 ± 48, Table 17

Compound | EC50 [7, 10] [µM] | EC50 [7, 11] [µM] | Cell-based FXR transactivation Fold changes by 5 μM compound [8] | EC50 [8] [nM] | viability at 20 µM [1] [%] | viability at 40 µM [1] [%] | viability at 20 µM [2] [%] | viability at 40 µM [2] [%] | Hepatic triglyceride (mM/g) ([3]; 10 mg/kg for 10 days) | Serum ALT (U/L) [3, 9] | viability at 20 µM [4] [%] | viability at 40 µM [4] [%] | viability at 20 µM [5] [%] | viability at 40 µM [5] [%] | viability at 20 µM [6] [%] | viability at 40 µM [6] [%] | Serum ALP (U/L) [3, 12] | Serum ALT (U/L) [3, 13]
Nc1ccc(C(=O)OC2CCCCCC2)cc1 [XD-12, cycloheptyl 4-aminobenzoate] | > 10 | > 10 | 1.5 | – | 65 ± 4 | 54 ± 4 | 100 ± 2 | 90 ± 5 | 103 ± 20 ^a mM/g | 199 ± 37 ^a U/L | 100 ± 2 | 97 ± 3 | 77 ± 3 | 65 ± 3 | 100 ± 4 | 82 | – | –
CC1(C)C2CCC1(C)C(OC(=O)c1ccc(=O)[nH]c1)C2 (centres unmarked) [XD-8, 1,7,7-trimethyl-bicyclo[2.2.1]-heptan-2-yl 6-oxo-1,6-dihydropyridine-3-carboxylate] | 1 to 10 | 1 to 10 | 4 | 1000 to 10000 | 78 ± 4 | 60 ± 4 | 97 | 71 ± 3 | 102 ± 8 ^c mM/g | 115 ± 31 ^a U/L | 90 | 64 ± 3 | 92 ± 7 | 60 ± 3 | 94 ± 10 | 75 | – | –
CC1(C)C2CCC1(C)C(OC(=O)c1ccncc1)C2 (centres unmarked) [XD-6, 1,7,7-trimethyl-bicyclo[2.2.1]-heptan-2-yl isonicotinate] | 1 to 10 | 1 to 10 | >10 | 1000 to 10000 | 57 ± 2 | 42 ± 3 | 100 ± 1 | 76 ± 1 | 90 ± 11^b mM/g | 101 ± 28 ^a U/L | 99 ± 1 | 70 ± 2 | 61 ± 1 | 45 ± 2 | 100 ± 8 | 61 | – | –
CC1(C)C2CCC1(C)C(OC(=O)c1ccc(F)cc1)C2 (centres unmarked) [XD-0, 1,7,7-trimethyl-bicyclo[2.2.1]-heptan-2-yl 4-fluorobenzoate] | 1 to 10 | 1 to 10 | 5 | 1000 to 10000 | 81 ± 4 | 56 ± 2 | 90 | 71 ± 3 | 91 ± 22 ^a mM/g | 106 ± 22 ^a U/L | 81 ± 2 | 76 ± 7 | 95 ± 4 | 62 ± 6 | 100 ± 2 | 85 | – | –
O=C(OC1CCCCCCCCCCC1)c1ccc(O)cc1 [XD-11, cyclododecyl 4-hydroxybenzoate] | 1 to 10 | 1 to 10 | 4 | 1000 to 10000 | 89 ± 2 | 78 ± 3 | 100 ± 3 | 100 ± 2 | 102 ± 13 ^a mM/g | 106 ± 26 ^a U/L | 100 ± 1 | 97 ± 1 | 92 ± 2 | 70 ± 7 | 100 ± 7 | 100 ± 2 | – | –

The next lines start with results.

EC50 [7, 10] [µM] | EC50 [7, 11] [µM] | Cell-based FXR transactivation Fold changes by 5 μM compound [8] | EC50 [8] [nM] | Compound | viability at 20 µM [1] [%] | viability at 40 µM [1] [%] | viability at 20 µM [2] [%] | viability at 40 µM [2] [%] | Hepatic triglyceride (mM/g) ([3]; 10 mg/kg for 10 days) | Serum ALT (U/L) [3, 9] | viability at 20 µM [4] [%] | viability at 40 µM [4] [%] | viability at 20 µM [5] [%] | viability at 40 µM [5] [%] | viability at 20 µM [6] [%] | viability at 40 µM [6] [%] | Serum ALP (U/L) [3, 12] | Serum ALT (U/L) [3, 13]
< 1 | < 1 | 4 | < 1000 | CC1(C)C2CCC1(C)C(OC(=O)c1ccc(F)c(Br)c1)C2 (centres unmarked) [XD-13, 1,7,7-trimethyl-bicyclo[2.2.1]-heptan-2-yl 3-bromo-4-fluoro-benzoate] | 100 ± 2 | 71 ± 3 | 100 ± 3 | 96 ± 1 | – | – | 92 ± 3 | 86 ± 1 | 100 ± 2 | 70 ± 5 | 100 ± 7 | 100 ± 1 | 92 ± 7^c U/L | 135 ± 5^c U/L
< 1 | < 1 | 3 | < 1000 | COc1cc(C(=O)OC2CCCCCCC2)ccc1O [XD-18, cyclooctyl 4-hydroxy-3-methoxybenzoate] | 91 ± 4 | 40 ± 4 | 100 ± 3 | 71 ± 3 | – | – | 96 ± 3 | 55 ± 1 | 92 ± 1 | 30 ± 2 | 98 ± 10 | 32 | 77 ± 9^c U/L | 129 ± 19^b U/L
< 0.5 | < 0.5 | 3 | < 1000 | O=C(OC1CCC2CCCCC2C1)c1ccc(O)cc1 (centres unmarked) [XD-28, decahydro-naphthalen-2-yl 4-hydroxy-benzoate] | 99 ± 4 | 81 ± 4 | 94 ± 4 | 92 ± 4 | 87 ± 10 ^c mM/g | 103 ± 17^b U/L | 100 ± 4 | 96 ± 4 | 100 ± 4 | 88 ± 4 | 100 ± 4 | 98 ± 4 | – | –
< 1 | < 1 | 3 | < 1000 | Cc1cc(C(=O)OC2CCCCCCC2)ccc1O [XD-17, cyclooctyl 4-hydroxy-3-methylbenzoate] | 52 ± 2 | 24 ± 3 | 83 ± 4 | 39 ± 1 | – | – | 87 | 40 ± 1 | 82 ± 2 | 27 ± 3 | 91 ± 9 | 25 | 76 ± 17^a U/L | 185 ± 51^a U/L
< 0.5 | < 0.5 | 3 | < 1000 | COc1cc(C(=O)OC2CCC3CCCCC3C2)ccc1O (centres unmarked) [XD-30, decahydro-naphthalen-2-yl 4-hydroxy-3-methoxybenzoate] | 96 ± 2 | 77 ± 2 | 81 | 79 ± 2 | 108 ± 8 ^c mM/g | 92 ± 27 ^a U/L | 100 ± 2 | 94 ± 2 | 100 ± 2 | 100 ± 2 | 100 ± 2 | 92 ± 2 | 64 ± 14^a U/L | 92 ± 27^a U/L
